From patent US10723726B2, “Solid forms of (Z)-4-(5-((3-benzyl-4-oxo-2-thioxothiazolidin-5-ylidene)methyl)furan-2-yl)benzoic acid” (GB006, INC., priority 2015, dated 2020)
Where a name gives a salt, the structure may show the parent alone.

Legend:
[1] = system: murine melanoma B16-F10 tumors; experiment: Murine melanoma B16F10 allograft efficacy (Example 20); assay type: in vivo, C57BL/6 mice
[2] = Rat PK of LA1 free acid, first experiment (2-hydroxypropyl-β-cyclodextrin dose solution); assay type: in vivo, Sprague Dawley (SD) rats; settings: 30% 2-hydroxypropyl-β-cyclodextrin in PBS
Experimental: In a first experiment, the dose solution was prepared in 30% w:v 2-hydroxypropyl-β-cyclodextrin prepared in PBS at 2 mg/kg. Improved bioavailability was needed.

glucocorticoid receptor = biological target: T1, glucocorticoid receptor (Homo sapiens, UniProt P04150); experiment: Glucocorticoid receptor agonist assay
T1 sequence (P04150 1-777): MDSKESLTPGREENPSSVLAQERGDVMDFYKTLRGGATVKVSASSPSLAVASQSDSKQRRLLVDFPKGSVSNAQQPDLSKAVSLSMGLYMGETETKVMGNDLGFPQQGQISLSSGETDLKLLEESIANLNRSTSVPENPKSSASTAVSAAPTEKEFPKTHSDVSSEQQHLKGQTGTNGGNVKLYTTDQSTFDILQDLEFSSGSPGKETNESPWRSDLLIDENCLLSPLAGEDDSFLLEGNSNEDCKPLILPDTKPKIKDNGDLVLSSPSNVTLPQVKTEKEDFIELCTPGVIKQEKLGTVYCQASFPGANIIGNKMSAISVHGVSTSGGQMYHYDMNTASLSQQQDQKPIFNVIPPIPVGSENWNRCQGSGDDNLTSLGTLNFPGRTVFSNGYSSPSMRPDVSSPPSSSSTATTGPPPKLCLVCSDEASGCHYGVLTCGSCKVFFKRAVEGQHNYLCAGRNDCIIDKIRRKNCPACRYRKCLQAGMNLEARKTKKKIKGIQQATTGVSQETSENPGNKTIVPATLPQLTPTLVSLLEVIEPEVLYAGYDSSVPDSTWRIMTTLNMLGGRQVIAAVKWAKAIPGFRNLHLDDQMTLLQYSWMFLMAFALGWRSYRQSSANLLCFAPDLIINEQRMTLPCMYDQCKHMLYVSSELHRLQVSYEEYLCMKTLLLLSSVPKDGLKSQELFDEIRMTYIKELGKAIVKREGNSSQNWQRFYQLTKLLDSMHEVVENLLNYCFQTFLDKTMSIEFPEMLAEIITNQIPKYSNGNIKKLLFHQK

in vivo = settings: C57BL/6, mouse
Experimental: A mouse melanoma tumor cell line, B16-F10, was used for developing a subcutaneous tumor model. 0.1×10^6 cells were injected subcutaneously in the right flank region of the animal. When the tumors reached ˜45 mm^3 the animals were randomized into various groups, each group with 10 animals, so that the average tumor volume of all the groups was similar. Animals were treated from the day of randomization (Day 1). Tumor dimensions (length and diameter) were measured for all animals three times per week, including the termination day of the study. In addition, throughout the study period, mice were monitored daily for clinical conditions. […] Portions of the blood samples were used for blood analysis and clinical chemistry. Lung, heart, liver, spleen, and kidneys were also collected and histopathological analysis was performed.

[3] = mouse, in vivo, po
Source text: Mice were inoculated with B16F10 tumors as described above. Once the tumor volume reached around 45 mm^3, animals were randomized into various groups with 10 animals in all the groups so that the average tumor volume of each group was similar.
LA1 was combined with a solution containing 5% DMSO, 5% Solutol:ethanol (1:1), 20% Tween20, and 70% N-saline.

[4] = rats; cited from earlier work
[5] = Sprague Dawley, in vivo, PO 2 mg/kg

Rat Cl ([2]; PO - 2 mg/kg table) [mL/min/kg]	Vss ([2]; PO - 2 mg/kg table) [L]	AUC [2, 5] [µM·h]	MRT [2, 5] [h]	half-life [2, 5] [h]	bioavailability ([2]; Sprague Dawley, in vivo, PO 2 mg/kg, read-out: Rat F %) [%]	efficacy in glucocorticoid receptor agonist assay (glucocorticoid receptor)	concentration at 0.5 h (in vivo; exposure in blood at end of study) [ng/mL]	concentration at 0.5 h (in vivo; exposure in tumor at end of study) [ng/mL]	exposure in blood at end of study [3]	exposure in tumor at end of study [3]	SMILES	growth inhibition of B16-F10 tumors as compared to vehicle control ([1]; 3-100 mg/kg orally)	tumor volume ([1]; 3-100 mg/kg, FIG. 24)	neointimal thickening upon vascular injury [4]
–	–	–	–	–	–	–	–	–	–	–	O=C(O)c1ccc(-c2ccc(/C=C3\SC(=S)N(Cc4ccccc4)C3=O)o2)cc1 [LA1 choline salt]	43-68%	decreased tumor volume in a dose dependent manner	–
11.1	0.59	8.7	3.49	2.03	15.1	shown efficacy	383 ± 450	24.7 ± 17.6	below the limit of quantitation	below the limit of quantitation	O=C(O)c1ccc(-c2ccc(/C=C3\SC(=S)N(Cc4ccccc4)C3=O)o2)cc1 [LA1, (Z)-4-(5-((3-benzyl-4-oxo-2-thioxothiazolidin-5-ylidene)methyl)furan-2-yl)benzoic acid]	–	–	reduce neointimal thickening
